What was measured:
human wildtype CFTR [1] = biological target: T1, human wildtype CFTR (Homo sapiens, UniProt P13569); assay: Short-circuit (apical membrane) chloride current in CFTR-expressing FRT cells, basolateral membrane permeabilized; format: cell-based
T1 construct: expressed in transfected cells; host or cells: Fischer rat thyroid (FRT) cells
Description: C. Short-Circuit Current Measurements—Snapwell inserts containing CFTR-expressing FRT cells (stably expressing human wildtype CFTR), T84 cells, or human bronchial epithelial cells were mounted in Ussing chambers. For FRT cells the hemichambers were filled with 5 mL of 75 mM NaCl and 75 mM Na gluconate (apical), and 150 mM NaCl (basolateral) (pH 7.3), and the basolateral membrane was permeabilized with 250 μg/mL amphotericin B. For bronchial epithelial cells and T84 cells, both hemichambers contained a Krebs-bicarbonate solution. Hemichambers were continuously bubbled with air (FRT cells) or 5% CO2 in air (bronchial and T84 cells) and maintained at 37° C. Short-circuit current was recorded continuously using a DVC-1000 voltage clamp (World Precision Instruments, Sarasota, Fla.) using Ag/AgCl electrodes and 3 M KCl agar bridges.
Short circuit current analysis was performed as described in Example 2. […] Measurements were taken in the presence of a transepithelial chloride gradient and following basolateral membrane permeabilization with amphotericin B so that measured current is a direct, quantitative measure of CFTR chloride conductance.

[2] = tested on: calcium-activated chloride channels; assay: UTP-induced chloride currents in cystic fibrosis (CFTR-deficient) human bronchial epithelial cells; format: cell-based; conditions: 10 or 20 μM; UTP 100 μM
Description: FIG. 3A: Apical membrane current measured in CFTR-expressing FRT cells in the presence of a transepithelial chloride gradient and with amphotericin B permeabilization of the basolateral membrane. CFTR was activated by CPT-cAMP (chlorophenylthio-cAMP) (100 μM), with increasing concentrations of PPQ-102 added as shown. Left: Original recording. Right: Dose-response (S.E. n=4). FIG. 3B: Measurements as in FIG. 3A, but with apigenin (100 μM) or IBMX (100 μM) as agonists. The data are representative of 3 sets of experiments. FIG. 3C: Short-circuit current measured in T84 (left) and human bronchial airway epithelial cells (right). CFTR was maximally activated by 10 μM forskolin and 100 μM IBMX (‘forsk’). Current in the absence of inhibitor is indicated as ‘control.’ FIG. 3D: Calcium-activated chloride channels were activated by UTP (100 μM) in cystic fibrosis (CFTR-deficient) human bronchial epithelial cells, with PPQ-102 added as indicated. ENaC (epithelial sodium channel) was inhibited by amiloride (10 μM). FIG. 3E: Cellular cAMP assayed in CHO—K1 cells under basal conditions and after addition of 20 μM forskolin (S.E. n=4, differences with PPQ-102, not significant).

human wildtype CFTR [3] = biological target: T1, human wildtype CFTR; assay: Whole-cell patch-clamp in CFTR-expressing FRT cells; format: cell-based; conditions: 0.5 μM; voltage-independent block
Description: D. Patch-Clamp Analysis—Whole cell recordings were performed using FRT cells stably expressing human wildtype CFTR. The pipette solution contained 140 mM N-methyl D-glucamine chloride (NMDG-Cl), 5 mM EGTA, 1 mM MgCl2, 1 mM Tris-ATP, and 10 mM HEPES (pH 7.2), and the bath solution contained 140 mM N-methyl D-glucamine chloride, 1 mM CaCl2, 1 mM MgCl2, 10 mM glucose and 10 mM HEPES (pH 7.4). Experiments were performed at room temperature (22-25° C.). Pipettes were pulled from borosilicate glass and had resistances of 3-5 Mohm after fire polishing. […] After establishing the whole-cell configuration, CFTR was activated by adding forskolin and 3-isobutyl-1-methylxanthine (IBMX). Whole cell currents were elicited by applying hyperpolarizing and depolarizing voltage pulses from a holding potential of 0 mV to potentials between −100 mV and +100 mV in steps of 20 mV. Current was filtered at 5 kHz and digitized and analyzed using an AxoScope 10.0 system and a Digidata® 1440A AC/DC converter (Molecular Devices, Sunnyvale, Calif.). The single channel characteristics of CFTR were analyzed in the cell-attached configuration using fire-polished pipettes with a resistance of 10-15 Mohm. […] Single channel data were digitally filtered at 25 Hz, and analyzed using Clampfit 10.0 software (Axon Instruments).

human wildtype CFTR [4] = biological target: T1, human wildtype CFTR; assay: Single-channel cell-attached patch recordings of CFTR; format: cell-based; conditions: 1 μM
Description: D. Patch-Clamp Analysis—Whole cell recordings were performed using FRT cells stably expressing human wildtype CFTR. The pipette solution contained 140 mM N-methyl D-glucamine chloride (NMDG-Cl), 5 mM EGTA, 1 mM MgCl2, 1 mM Tris-ATP, and 10 mM HEPES (pH 7.2), and the bath solution contained 140 mM N-methyl D-glucamine chloride, 1 mM CaCl2, 1 mM MgCl2, 10 mM glucose and 10 mM HEPES (pH 7.4). Experiments were performed at room temperature (22-25° C.). Pipettes were pulled from borosilicate glass and had resistances of 3-5 Mohm after fire polishing. […] After establishing the whole-cell configuration, CFTR was activated by adding forskolin and 3-isobutyl-1-methylxanthine (IBMX). Whole cell currents were elicited by applying hyperpolarizing and depolarizing voltage pulses from a holding potential of 0 mV to potentials between −100 mV and +100 mV in steps of 20 mV. Current was filtered at 5 kHz and digitized and analyzed using an AxoScope 10.0 system and a Digidata® 1440A AC/DC converter (Molecular Devices, Sunnyvale, Calif.). The single channel characteristics of CFTR were analyzed in the cell-attached configuration using fire-polished pipettes with a resistance of 10-15 Mohm. The pipette solution contained (in mM): 140 NMDG-Cl, 1 CaCl2, 1 MgCl2, 5 glucose and 10 HEPES (pH 7.4), and the bath solution contained 140 KCl, 1 CaCl2, 1 MgCl2, 5 glucose and 10 HEPES (pH 7.4). Recordings were performed at room temperature using an Axopatch-200B (Axon Instruments, Foster City, Calif.). The voltage and current data were low-pass filtered at 1 kHz and stored for later analysis. Single channel data were digitally filtered at 25 Hz, and analyzed using Clampfit 10.0 software (Axon Instruments).
Cell-attached patch recordings were performed to examine single-channel CFTR function.

[5] = tested on: renal cysts in E13.5 embryonic kidneys; assay: Embryonic kidney organ culture model of PKD (8-Br-cAMP-induced cysts); format: cell-based, mouse
Description: E. Embryonic Organ Culture Model of PKD—Mouse embryos were obtained at embryonic day 13.5 (E13.5). Metanephroi were dissected and placed on transparent Falcon […] diameter porous cell culture inserts as described (see, e.g., Sonawane et al., Chem. Biol. 15:718-728 (2008)). To the culture inserts was added DMEM/Ham's F-12 nutrient medium supplemented with 2 mM L-glutamine, 10 mM HEPES, 5 μg/mL insulin, 5 μg/mL transferrin, 2.8 nM selenium, 25 ng/ml prostaglandin E, 32 pg/ml T3, 250 U/ml penicillin and 250 μg/ml streptomycin. Kidneys were maintained in a 37° C. humidified CO2 incubator for up to 8 days. Culture medium containing 100 μM 8-Br-cAMP, with or without CFTR inhibitor, was replaced (in the lower chamber) every 12 h. In some studies CFTR inhibitor was added at 3 days after 8-Br-cAMP to test its efficacy in reversing pre-formed cysts. Kidneys were photographed using a Nikon inverted microscope (Nikon TE 2000-S) equipped with 2× objective lens, 520 nm bandpass filter, and high-resolution CCD camera. Percentage cyst area was calculated as total cyst area divided by total kidney area.
Kidneys were removed from day 13.5 embryonic mice and maintained in organ culture where they continue to grow. […] Multiple cysts did form and progressively enlarged when the culture medium was supplemented with the CFTR agonist 8-Br-cAMP (see FIG. 5A, left). […] In agreement with the transmission light micrographs of intact kidneys, PPQ-102 reduced cyst size.

CFTR = CFTR (Homo sapiens, UniProt P13569); assay: Short-circuit current in non-permeabilized T84 and human bronchial epithelial cells; format: cell-based; design: endogenous in cells; host or cells: T84 human intestinal epithelial cells; primary human bronchial epithelial cells; conditions: forskolin and IBMX, read-out: IC50 for CFTR inhibition
Chain of CFTR (P13569 whole entry): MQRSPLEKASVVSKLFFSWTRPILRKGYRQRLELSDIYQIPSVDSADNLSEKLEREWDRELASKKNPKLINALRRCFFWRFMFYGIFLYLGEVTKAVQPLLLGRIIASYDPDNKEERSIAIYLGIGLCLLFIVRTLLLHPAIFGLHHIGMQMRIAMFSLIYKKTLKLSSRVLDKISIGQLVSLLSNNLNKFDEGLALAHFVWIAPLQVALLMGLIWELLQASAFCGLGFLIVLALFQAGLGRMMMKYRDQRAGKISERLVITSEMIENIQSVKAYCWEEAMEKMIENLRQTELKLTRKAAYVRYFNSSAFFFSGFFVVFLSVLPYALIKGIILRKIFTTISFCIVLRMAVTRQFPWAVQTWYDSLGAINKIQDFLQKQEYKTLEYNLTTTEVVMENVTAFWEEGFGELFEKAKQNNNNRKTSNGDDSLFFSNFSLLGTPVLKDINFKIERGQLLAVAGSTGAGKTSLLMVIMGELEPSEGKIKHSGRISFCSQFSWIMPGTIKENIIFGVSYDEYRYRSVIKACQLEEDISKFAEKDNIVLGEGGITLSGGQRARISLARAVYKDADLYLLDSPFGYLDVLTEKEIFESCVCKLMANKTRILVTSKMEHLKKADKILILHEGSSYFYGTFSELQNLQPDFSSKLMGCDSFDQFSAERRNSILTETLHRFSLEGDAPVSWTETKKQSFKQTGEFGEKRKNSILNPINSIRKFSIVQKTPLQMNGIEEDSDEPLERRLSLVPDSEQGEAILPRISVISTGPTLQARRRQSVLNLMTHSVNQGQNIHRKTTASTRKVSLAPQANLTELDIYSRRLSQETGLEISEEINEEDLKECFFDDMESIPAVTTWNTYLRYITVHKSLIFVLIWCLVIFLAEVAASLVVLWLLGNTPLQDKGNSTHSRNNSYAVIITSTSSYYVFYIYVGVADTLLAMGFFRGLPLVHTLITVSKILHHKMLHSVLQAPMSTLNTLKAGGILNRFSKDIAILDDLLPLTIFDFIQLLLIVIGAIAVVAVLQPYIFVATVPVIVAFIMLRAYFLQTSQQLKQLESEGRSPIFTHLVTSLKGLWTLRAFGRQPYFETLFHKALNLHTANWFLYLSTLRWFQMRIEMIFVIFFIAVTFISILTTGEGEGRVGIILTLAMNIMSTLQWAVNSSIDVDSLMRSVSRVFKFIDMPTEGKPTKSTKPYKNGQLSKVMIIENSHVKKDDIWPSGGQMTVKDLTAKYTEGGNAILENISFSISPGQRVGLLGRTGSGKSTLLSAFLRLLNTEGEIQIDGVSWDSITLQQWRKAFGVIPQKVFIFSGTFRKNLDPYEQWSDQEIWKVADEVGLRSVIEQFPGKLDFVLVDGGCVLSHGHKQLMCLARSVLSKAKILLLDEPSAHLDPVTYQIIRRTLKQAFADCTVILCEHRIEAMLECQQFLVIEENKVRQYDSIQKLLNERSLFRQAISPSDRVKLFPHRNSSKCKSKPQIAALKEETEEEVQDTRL

T1 sequence (P13569 whole entry): as above

## Cc1ccc(C2Nc3ccccc3-n3c(-c4ccccc4)c4c(=O)n(C)c(=O)n(C)c4c32)o1 (racemic) [PPQ-102, 7,9-Dimethyl-11-phenyl-6-(5-methylfuran-2-yl)-5,6-dihydro-pyrimido[4′,5′-3,4]pyrrolo[1,2-a]quinoxaline-8,10-(7H,9H)-dione]
Human wildtype CFTR [1]; 30 min incubation with 2 μM, then 10 min washout
  reversibility of inhibition: complete restoration of CFTR chloride current
Human wildtype CFTR [1]; CFTR stimulated by CPT-cAMP, transepithelial chloride gradient, amphotericin B, read-out: IC50 for inhibition of CFTR chloride conductance
  IC50: ~90 nM
Human wildtype CFTR [1]; CPT-cAMP stimulation, higher concentrations
  inhibition of CFTR at higher concentrations: approximately 100%
Human wildtype CFTR [1]; apigenin (100 μM) or IBMX (100 μM) as agonists
  potency with apigenin or IBMX as agonist compared to CPT-cAMP: mildly reduced
[2]
  inhibition of UTP-induced chloride currents: little inhibition
Human wildtype CFTR [3]
  CFTR current-voltage relationship after addition: remained linear
Human wildtype CFTR [4]
  Mean channel open time: did not significantly change
  mean channel closed time: greatly increased
Human wildtype CFTR [4]; control 0.50±0.04, forskolin and IBMX, +80 mV
  Channel open probability (Po): 0.14±0.03
Human wildtype CFTR [4]; control 7 pS at +80 mV
  unitary conductance: did not change
[5]; 2.5 μM removed after 3 days, 8-Br-cAMP continued
  reversibility of cyst inhibition: reversible
[5]; 5 μM added at day 3 of 8-Br-cAMP, over 1 and 2 days
  effect on pre-formed cysts: reduction in cyst size
[5]; 2.5 and 5 μM, 4 days in culture, 100 μM 8-Br-cAMP
  cysts at 2.5 and 5 μM: near complete absence of cysts
[5]; in culture medium
  effect on kidney growth: did not affect kidney growth
CFTR
  IC50: < 1000 nM

From US8609661B2, “Pyrimido-pyrrolo-quinoxalinedione inhibitors of cystic fibrosis transmembrane conductance regulator protein and uses therefor” (The Regents of the University of California, priority 2009, dated 2013)
